Results from patent US20190231884A1, “SYNTHETIC PULMONARY SURFACTANT COMPOSITION FOR TREATING LUNG CONDITIONS” (priority 2016, published 2019).
≈ marks a conversion by molar mass, not a printed value.

Legend:
[1] = tested on: M. tuberculosis H37Rv reference strain; assay: MGIT 960 mycobacterial growth inhibition, H37Rv; type: cell-based, Mycobacterium tuberculosis; details: for GROWTH UNITS (Day 8) / SUSCEPTIBILITY MIC99: H37Rv
[2] = tested on: M. tb X51 clinical isolate; assay: microbe, parasite or virus in culture; type: cell-based, Mycobacterium tuberculosis; details: for GROWTH UNITS (Day 8) / SUSCEPTIBILITY MIC99: X51
[3] = Linezolid 1 μg/ml, growth control GU 400

`CC(=O)NC[C@H]1CN(c2ccc(N3CCOCC3)c(F)c2)C(=O)O1` [Linezolid, (S)-N-[[3-(3-fluoro-4-morpholinylpheny1)-2-oxo-5-oxazolidinyl]methyl] acetamide] was tested, and the “GROWTH UNITS (Day 8)” value ([1]; Linezolid 0.125 μg/ml) was 12030, the “SUSCEPTIBILITY MIC99” value ([1]; Linezolid 0.125 μg/ml) was “− (the GU of the drug-containing tube were more than 400, the results were defined as showing resistance)” and the “GROWTH UNITS (Day 8)” value ([1]; Linezolid 0.25 μg/ml) was 12878. For the same compound, the “SUSCEPTIBILITY MIC99” value ([1]; Linezolid 0.25 μg/ml) was “− (the GU of the drug-containing tube were more than 400, the results were defined as showing resistance)”, the “GROWTH UNITS (Day 8)” value ([1]; Linezolid 0.5 μg/ml) was 4674 and the “SUSCEPTIBILITY MIC99” value ([1]; Linezolid 0.5 μg/ml) was “− (the GU of the drug-containing tube were more than 400, the results were defined as showing resistance)”. For the same compound, the “SUSCEPTIBILITY MIC99” value ([1]; Linezolid 1 μg/ml) was “+ (when the GU of the drug-containing tube were less than 400, the results were considered to show susceptibility)”, the “GROWTH UNITS (Day 8)” value [1, 3] was 377 and the MIC ([1]; Mycobacterium tuberculosis, H37Rv Strain, read-out: Minimum Inhibitory Concentration) was 1 mg/L (≈ 2.96 µM). The MIC ([2]; Mycobacterium tuberculosis, read-out: Minimum Inhibitory Concentration) was 1 mg/L (≈ 2.96 µM), the “GROWTH UNITS (Day 8)” value ([2]; Linezolid 0.125 μg/ml) was 9164 and the “SUSCEPTIBILITY MIC99” value ([2]; Linezolid 0.125 μg/ml) was “− (the GU of the drug-containing tube were more than 400, the results were defined as showing resistance)”. The “GROWTH UNITS (Day 8)” value ([2]; Linezolid 0.25 μg/ml) was 6727, the “SUSCEPTIBILITY MIC99” value ([2]; Linezolid 0.25 μg/ml) was “− (the GU of the drug-containing tube were more than 400, the results were defined as showing resistance)” and the “GROWTH UNITS (Day 8)” value ([2]; Linezolid 0.5 μg/ml) was 714. The “SUSCEPTIBILITY MIC99” value ([2]; Linezolid 0.5 μg/ml) was “− (the GU of the drug-containing tube were more than 400, the results were defined as showing resistance)”, the “SUSCEPTIBILITY MIC99” value ([2]; Linezolid 1 μg/ml) was “+ (when the GU of the drug-containing tube were less than 400, the results were considered to show susceptibility)” and the “GROWTH UNITS (Day 8)” value [2, 3] was 0.
